Experiment [1] deals with maternal HIV+ sera (antibodies). Description: RIA / ELISA binding of maternal HIV+ sera to gp120 and gp41 peptides (Example 3). On the set-up: species or system human. In a few lines: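 Peptides were coated at 10 μg/ml in carbonate buffer pH 9.6 and blocked with 1% BSA. Sera at 1:50 and 1:500 were incubated overnight at 4°C and detected with ¹²⁵I anti-human IgG (RIA) or HRP/TMB at OD450 (ELISA). Specific binding was taken as peptide minus no-peptide wells, scored as a ratio to normal human serum.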
A general note: An ELISA detects its analyte on a solid surface through an enzyme-linked reagent.

For experiment [2], the system named is maternal serum samples (antibodies). As to the kind of experiment: ELISA peptide-binding of maternal sera, expanded peptide collection (Example 5). On the set-up: species or system human. To be noted: Example 5. The source says: The gp120 and gp41 peptides used in this experiment include peptides 60 [SEQ ID NO:9], 93 [SEQ ID NO:10], 94 [SEQ ID NO:1], 95 [SEQ ID NO:11], 96 [SEQ ID NO:12], 97 [SEQ ID NO:13], 59 [SEQ ID NO:14], 106 [SEQ ID NO:15], 107 [SEQ ID NO:[…]], 1029/33 [SEQ ID NO:2], p18p [SEQ ID NO:17], B138 [SEQ ID NO:3], 466 [SEQ ID NO:4], 497 [SEQ ID NO:18], 117 [SEQ ID NO:19], F560 [SEQ ID NO:20], 35 [SEQ ID NO:5], 120 [SEQ ID NO:21], 121 [SEQ ID NO:22], 123 [SEQ ID NO:23], 36 [SEQ ID NO:24], 40 [SEQ ID NO:25], 41 [SEQ ID NO:26], 649 [SEQ ID NO:6], 53 [SEQ ID NO:7], 55 [SEQ ID NO:27], 128 [SEQ ID NO:28], 129 [SEQ ID NO:29], 132 [SEQ ID NO:30], 57 [SEQ ID NO:8], and 1103/55 [SEQ ID NO:31] from Table 2. These peptides were synthesized based on the same HIV IIIB isolate as were the peptides of Table 2. Alternative designations for these peptides are provided in brackets.
Each of the peptides was at least 85% pure, making them suitable for ELISA analyses. The average length of these peptides was 18 amino acid residues, which allows for a certain degree of local flexibility and conformational folding, thus facilitating detection of antibody species with reactivities to shaped structures.
The maternal serum samples were obtained from the Mothers/Infants Cohort Study described in Example 1. For the ELISA peptide-binding analyses performed essentially as described in Example 3, maternal serum samples were diluted to 1:50 or 1:500 with blocking buffer (1% bovine serum albumin in phosphate-buffered saline containing 0.05% Tween 20). Binding was measured using 10 μg/mL peptide per well and was considered positive if the experimental/control OD450nm ratio was ≥2. Normal (HIV seronegative) human sera were used as controls.

The mark [3] stands for this setting: Serum No. 1, Non-Transmission Group.
[4] abbreviates: Serum No. 2, Non-Transmission Group.
Setting [5] is: Serum No. 3, Non-Transmission Group.
The mark [6] stands for this setting: Serum No. 4, Transmission Group.
The mark [7] stands for this setting: Serum No. 5, Transmission Group.
Setting [8] is: Serum No. 6, Non-Transmission Group.
Setting [9] is: Serum No. 7, Non-Transmission Group.
Setting [10] is: Serum No. 8, Non-Transmission Group.
Where [11] appears, read: Serum No. 9, Non-Transmission Group.
The mark [12] stands for this setting: Serum No. 10, Transmission Group.
The mark [13] stands for this setting: Serum No. 11, Non-Transmission Group.
Setting [14] is: Serum No. 12, Non-Transmission Group.
The mark [15] stands for this setting: Serum No. 13, Transmission Group.
The mark [16] stands for this setting: Serum No. 14, Transmission Group.
Where [17] appears, read: Serum No. 15, Transmission Group.
Setting [18] is: Serum No. 16, Non-Transmission Group.
[19] abbreviates: Serum No. 17, Non-Transmission Group.
[20] abbreviates: Serum No. 18, Non-Transmission Group.
[21] abbreviates: Serum No. 19, Transmission Group.
The mark [22] stands for this setting: Serum No. 20, Non-Transmission Group.

In the case of LAVERYLKDQQLLGI [Peptide 121], the “Binding of maternal HIV+ serum to peptide (sera/NHS ratio)” value (from here on “Binding … (sera/NHS ratio)”) in experiment [1] (setting [3]) was “++ (which value is greater than 3)”; in experiment [1] (setting [4]), “- (specific OD450 or cpm of sera sample binding to peptide divided by the specific OD450 or cpm of NHS sample binding to peptide, which value is less than 2)”; in experiment [1] (setting [5]), “- (specific OD450 or cpm of sera sample binding to peptide divided by the specific OD450 or cpm of NHS sample binding to peptide, which value is less than 2)”; in experiment [1] (setting [6]) it was “- (specific OD450 or cpm of sera sample binding to peptide divided by the specific OD450 or cpm of NHS sample binding to peptide, which value is less than 2)”; in experiment [1] (setting [7]), “- (specific OD450 or cpm of sera sample binding to peptide divided by the specific OD450 or cpm of NHS sample binding to peptide, which value is less than 2)”; in experiment [1] (setting [8]), “++ (which value is greater than 3)”. For the same sequence, the “Binding … (sera/NHS ratio)” value is “- (specific OD450 or cpm of sera sample binding to peptide divided by the specific OD450 or cpm of NHS sample binding to peptide, which value is less than 2)” in experiment [1] (setting [9]); “- (specific OD450 or cpm of sera sample binding to peptide divided by the specific OD450 or cpm of NHS sample binding to peptide, which value is less than 2)” in experiment [1] (setting [10]); “- (specific OD450 or cpm of sera sample binding to peptide divided by the specific OD450 or cpm of NHS sample binding to peptide, which value is less than 2)” in experiment [1] (setting [11]); “- (specific OD450 or cpm of sera sample binding to peptide divided by the specific OD450 or cpm of NHS sample binding to peptide, which value is less than 2)” in experiment [1] (setting [12]); “- (specific OD450 or cpm of sera sample binding to peptide divided by the specific OD450 or cpm of NHS sample binding to peptide, which value is less than 2)” in experiment [1] (setting [13]); “- (specific OD450 or cpm of sera sample binding to peptide divided by the specific OD450 or cpm of NHS sample binding to peptide, which value is less than 2)” in experiment [1] (setting [14]). In addition, the “Binding … (sera/NHS ratio)” value in experiment [1] (setting [15]) is “- (specific OD450 or cpm of sera sample binding to peptide divided by the specific OD450 or cpm of NHS sample binding to peptide, which value is less than 2)”; in experiment [1] (setting [16]) it was “++ (which value is greater than 3)”; in experiment [1] (setting [17]) it was “++ (which value is greater than 3)”; in experiment [1] (setting [18]), “++ (which value is greater than 3)”; in experiment [1] (setting [19]) it was “++ (which value is greater than 3)”; in experiment [1] (setting [20]), “++ (which value is greater than 3)”. Besides, the “Binding … (sera/NHS ratio)” value in experiment [1] (setting [21]) was “- (specific OD450 or cpm of sera sample binding to peptide divided by the specific OD450 or cpm of NHS sample binding to peptide, which value is less than 2)”; in experiment [1] (setting [22]), “- (specific OD450 or cpm of sera sample binding to peptide divided by the specific OD450 or cpm of NHS sample binding to peptide, which value is less than 2)”. For the same sequence, the “Percent of the maternal serum samples that bound to the peptide” value in experiment [1] (all 20 samples) was determined as 35%. Besides, the “Binding / reactivity of maternal sera to peptide (in words)” value in experiment [2] is on record as “recognized by the transmission group”.

For the sequence THACVPTDPNPQEVV [Peptide 95], the “Number of maternal sera binding to peptide” value in experiment [1] (20 maternal sera) is on record as “three”. Also, the “Binding of maternal sera to peptide (in words)” value in experiment [1] (Example 3) is listed as “Several maternal serum samples had reactivity”. In addition, the “Binding … (sera/NHS ratio)” value in experiment [1] (setting [3]) is “+ (which value is between 2 to 3)”; in experiment [1] (setting [4]), “- (specific OD450 or cpm of sera sample binding to peptide divided by the specific OD450 or cpm of NHS sample binding to peptide, which value is less than 2)”; in experiment [1] (setting [5]), “- (specific OD450 or cpm of sera sample binding to peptide divided by the specific OD450 or cpm of NHS sample binding to peptide, which value is less than 2)”; in experiment [1] (setting [6]), “- (specific OD450 or cpm of sera sample binding to peptide divided by the specific OD450 or cpm of NHS sample binding to peptide, which value is less than 2)”; in experiment [1] (setting [7]) it was “- (specific OD450 or cpm of sera sample binding to peptide divided by the specific OD450 or cpm of NHS sample binding to peptide, which value is less than 2)”; in experiment [1] (setting [8]), “- (specific OD450 or cpm of sera sample binding to peptide divided by the specific OD450 or cpm of NHS sample binding to peptide, which value is less than 2)”. The “Binding … (sera/NHS ratio)” value in experiment [1] (setting [9]) is “- (specific OD450 or cpm of sera sample binding to peptide divided by the specific OD450 or cpm of NHS sample binding to peptide, which value is less than 2)”; in experiment [1] (setting [10]), “- (specific OD450 or cpm of sera sample binding to peptide divided by the specific OD450 or cpm of NHS sample binding to peptide, which value is less than 2)”; in experiment [1] (setting [11]), “- (specific OD450 or cpm of sera sample binding to peptide divided by the specific OD450 or cpm of NHS sample binding to peptide, which value is less than 2)”; in experiment [1] (setting [12]), “- (specific OD450 or cpm of sera sample binding to peptide divided by the specific OD450 or cpm of NHS sample binding to peptide, which value is less than 2)”; in experiment [1] (setting [13]), “+ (which value is between 2 to 3)”; in experiment [1] (setting [14]) it was “- (specific OD450 or cpm of sera sample binding to peptide divided by the specific OD450 or cpm of NHS sample binding to peptide, which value is less than 2)”. Moreover, the “Binding … (sera/NHS ratio)” value is on record as “- (specific OD450 or cpm of sera sample binding to peptide divided by the specific OD450 or cpm of NHS sample binding to peptide, which value is less than 2)” in experiment [1] (setting [15]); “++ (which value is greater than 3)” in experiment [1] (setting [16]); “- (specific OD450 or cpm of sera sample binding to peptide divided by the specific OD450 or cpm of NHS sample binding to peptide, which value is less than 2)” in experiment [1] (setting [17]); “- (specific OD450 or cpm of sera sample binding to peptide divided by the specific OD450 or cpm of NHS sample binding to peptide, which value is less than 2)” in experiment [1] (setting [18]); “- (specific OD450 or cpm of sera sample binding to peptide divided by the specific OD450 or cpm of NHS sample binding to peptide, which value is less than 2)” in experiment [1] (setting [19]); “- (specific OD450 or cpm of sera sample binding to peptide divided by the specific OD450 or cpm of NHS sample binding to peptide, which value is less than 2)” in experiment [1] (setting [20]). Besides, the “Binding … (sera/NHS ratio)” value is “- (specific OD450 or cpm of sera sample binding to peptide divided by the specific OD450 or cpm of NHS sample binding to peptide, which value is less than 2)” in experiment [1] (setting [21]) and “- (specific OD450 or cpm of sera sample binding to peptide divided by the specific OD450 or cpm of NHS sample binding to peptide, which value is less than 2)” in experiment [1] (setting [22]). Further, the “Number of binding maternal sera from the transmission group” value in experiment [1] (vertical transmission group (7 sera)) is “one”. The “Binding / reactivity of maternal sera to peptide (in words)” value in experiment [2] was “Differences in binding between the transmission and non-transmission groups are noted”.

The record behind these values is patent US5556744A, “Methods and compositions for diagnosing and treating certain HIV infected patients” (The Trustees of the University of Pennsylvania, priority 1994, dated 1996).
